Source: patent US8673908B2, “Kynurenine production inhibitor” (Kyowa Hakko Kirin Co., Ltd., priority 2008, dated 2014)

Test system: kynurenine production in IFN-γ-treated KATO-III cells
Assay: Inhibitory activity on kynurenine production (Test Example 1)
Format: cell-based
Conditions: Homo sapiens, IFN-γ treatment, culture for 96 hours, read-out: IC50 value, inhibition of kynurenine production
Method in brief: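 KATO-III human gastric cancer cells (2,000/well, RPMI 1640 + 10% FBS) were cultured with compound and IFN-γ (31.25 ng/mL in the cell suspension), DMSO ≤0.1%, for 96 h at 37 °C, 5% CO2. Kynurenine was read at A480 after TCA at 65 °C and p-dimethylaminobenzaldehyde. Inhibition used IFN-γ-treated and untreated DMSO wells as references.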

Structure (SMILES) | IC50 [nM]
CC1(COc2nc3ccccc3nc2NS(=O)(=O)c2ccccc2Cl)COCOC1 [Compound 251, 2-chloro-N-{3-[(5-methyl-1,3-dioxan-5-yl)methoxy]-quinoxalin-2-yl}benzenesulfonamide] | 1000 to 10000
O=S(=O)(Nc1nc2cc3ccccc3cc2nc1OC(c1cccnc1)C(F)(F)F)c1ccccc1Cl (stereo not drawn) [Compound 263, 2-chloro-N-{3-[2,2,2-trifluoro-1-(pyridin-3-yl)ethoxy]-benzo[g]quinoxalin-2-yl}benzenesulfonamide] | < 1000
O=S(=O)(Nc1nc2cc(Cl)c(Cl)cc2nc1OC(c1cccnc1)C(F)(F)F)c1ccccc1Cl (stereo not drawn) [Compound 264, 2-chloro-N-{6,7-dichloro-3-[2,2,2-trifluoro-1-(pyridin-3-yl)ethoxy]quinoxalin-2-yl}benzenesulfonamide] | < 1000
Cc1cccc2nc(OC(c3cccnc3)C(F)(F)F)c(NS(=O)(=O)c3ccccc3Cl)nc12 (stereo not drawn) [Compound 265, 2-chloro-N-{8-methyl-3-[2,2,2-trifluoro-1-(pyridin-3-yl)-ethoxy]quinoxalin-2-yl}benzenesulfonamide] | < 1000
Cc1cccc2nc(NS(=O)(=O)c3ccccc3Cl)c(OC(c3cccnc3)C(F)(F)F)nc12 (stereo not drawn) [Compound 266, 2-chloro-N-{5-methyl-3-[2,2,2-trifluoro-1-(pyridin-3-yl)-ethoxy]quinoxalin-2-yl}benzenesulfonamide] | < 1000
CCOC(CCNS(=O)(=O)Nc1nc2ccccc2nc1OC(c1cccnc1)C(F)(F)F)OCC (stereo not drawn) [Compound 272, N-{3-[2,2,2-trifluoro-1-(pyridin-3-yl)ethoxy]quinoxalin-2-yl}-N′-(3,3-diethoxypropyl)-sulfuric diamide] | < 1000
C#CCNS(=O)(=O)Nc1nc2ccccc2nc1OC(c1cccnc1)C(F)(F)F (stereo not drawn) [Compound 274, N-{3-[2,2,2-trifluoro-1-(pyridin-3-yl)ethoxy]quinoxalin-2-yl}-N′-(2-propynyl)-sulfuric diamide] | < 1000
CCCS(=O)(=O)Nc1nc2ccccc2nc1OC(c1cncn1C)C(F)(F)F (stereo not drawn) [Compound 277, N-{3-[2,2,2-trifluoro-1-(1-methyl-1H-imidazol-5-yl)ethoxy]-quinoxalin-2-yl}propane-1-sulfonamide] | 1000 to 10000
CCCS(=O)(=O)Nc1nc2ccccc2nc1OC(c1ccc(Cl)nc1)C(F)(F)F (stereo not drawn) [Compound 278, N-{3-[1-(6-chloropyridin-3-yl)-2,2,2-trifluoroethoxy]-quinoxalin-2-yl}propane-1-sulfonamide] | < 1000
CCCNS(=O)(=O)Nc1nc2ccccc2nc1OC(c1ccc(C)nc1)C(F)(F)F (stereo not drawn) [Compound 280, N-{3-[2,2,2-trifluoro-1-(6-methylpyridin-3-yl)ethoxy]-quinoxalin-2-yl}-N′-propyl-sulfuric diamide] | < 1000
CCCNS(=O)(=O)Nc1nc2ccccc2nc1OC(c1cncn1C)C(F)(F)F (stereo not drawn) [Compound 282, N-{3-[2,2,2-trifluoro-1-(1-methyl-1H-imidazol-5-yl)ethoxy]-quinoxalin-2-yl}-N′-propyl-sulfuric diamide] | < 1000
CCCNS(=O)(=O)Nc1nc2ccccc2nc1OC(c1ccc(Cl)nc1)C(F)(F)F (stereo not drawn) [Compound 283, N-{3-[1-(6-chloropyridin-3-yl)-2,2,2-trifluoroethoxy]-quinoxalin-2-yl}-N′-propyl-sulfuric diamide] | < 1000
CCCNS(=O)(=O)Nc1nc2ccccc2nc1OC(c1ccc(C)[n+]([O-])c1)C(F)(F)F (stereo not drawn) [Compound 284, 2-methyl-5-{2,2,2-trifluoro-1-[3-(N-propylsulfamoylamino)-quinoxalin-2-yloxy]ethyl}pyridine 1-oxide] | < 1000
Cc1ccc(C(Oc2nc3ccccc3nc2NS(=O)(=O)NC2CC2)C(F)(F)F)cn1 (stereo not drawn) [Compound 285, N-{3-[2,2,2-trifluoro-1-(6-methylpyridin-3-yl)ethoxy]-quinoxalin-2-yl}-N′-cyclopropyl-sulfuric diamide] | < 1000
O=S(=O)(Nc1nc2ccccc2nc1OC(c1cncs1)C(F)(F)F)NC1CC1 (stereo not drawn) [Compound 286, N-{3-[2,2,2-trifluoro-1-(thiazol-5-yl)ethoxy]quinoxalin-2-yl}-N′-cyclopropyl-sulfuric diamide] | < 1000
Cn1cncc1C(Oc1nc2ccccc2nc1NS(=O)(=O)NC1CC1)C(F)(F)F (stereo not drawn) [Compound 287, N-{3-[2,2,2-trifluoro-1-(1-methyl-1H-imidazol-5-yl)ethoxy]-quinoxalin-2-yl}-N′-cyclopropyl-sulfuric diamide] | 1000 to 10000
Cc1ccc(C(Oc2nc3ccccc3nc2NS(=O)(=O)NC2CC2)C(F)(F)F)c[n+]1[O-] (stereo not drawn) [Compound 289, 5-{1-[3-(N-cyclopropylsulfamoylamino)quinoxalin-2-yloxy]-2,2,2-trifluoroethyl}-2-methylpyridine 1-oxide] | 1000 to 10000
CCCS(=O)(=O)Nc1nc2ccccc2nc1OC(c1cccc(C#N)c1)C(F)(F)F (stereo not drawn) [Compound 290, N-{3-[1-(3-cyanophenyl)-2,2,2-trifluoroethoxy]quinoxalin-2-yl}propane-1-sulfonamide] | < 1000
CCCNS(=O)(=O)Nc1nc2ccccc2nc1OC(c1cccc(C#N)c1)C(F)(F)F (stereo not drawn) [Compound 291, N-{3-[1-(3-cyanophenyl)-2,2,2-trifluoroethoxy]quinoxalin-2-yl}-N′-propyl-sulfuric diamide] | < 1000
N#Cc1cccc(C(Oc2nc3ccccc3nc2NS(=O)(=O)NC2CC2)C(F)(F)F)c1 (stereo not drawn) [Compound 293, N-{3-[1-(3-cyanophenyl)-2,2,2-trifluoroethoxy]quinoxalin-2-yl}-N′-cyclopropyl-sulfuric diamide] | < 1000
COCCCS(=O)(=O)Nc1nc2ccccc2nc1OC(c1cccnc1)C(F)(F)F (stereo not drawn) [Compound 301, 3-methoxy-N-{3-[2,2,2-trifluoro-1-(pyridin-3-yl)ethoxy]-quinoxalin-2-yl}propane-1-sulfonamide] | < 1000
CCCS(=O)(=O)Nc1nc2ccccc2nc1OC(c1ccc(Cl)cc1)C(F)(F)F (stereo not drawn) [Compound 302, N-{3-[1-(4-chlorophenyl)-2,2,2-trifluoroethoxy]quinoxalin-2-yl}propane-1-sulfonamide] | < 1000

More lines, now with the values ahead:

IC50 [nM] | Structure (SMILES)
1000 to 10000 | COC1(COc2nc3ccccc3nc2NS(=O)(=O)c2ccccc2Cl)CCOCC1 [Compound 247, 2-chloro-N-{3-[(4-methoxytetrahydro-2H-pyran-4-yl)methoxy]-quinoxalin-2-yl}benzenesulfonamide]
1000 to 10000 | N#CC1(COc2nc3ccccc3nc2NS(=O)(=O)c2ccccc2Cl)CCOCC1 [Compound 250, 2-chloro-N-{3-[(4-cyanotetrahydro-2H-pyran-4-yl)methoxy]-quinoxalin-2-yl}benzenesulfonamide]
1000 to 10000 | Cc1cc2nc(NS(=O)(=O)c3ccccc3Cl)c(OC(c3cccnc3)C(F)(F)F)nc2cc1C (stereo not drawn) [Compound 260, 2-chloro-N-{6,7-dimethyl-3-[2,2,2-trifluoro-1-(pyridin-3-yl)ethoxy]quinoxalin-2-yl}benzenesulfonamide]
< 1000 | Cc1ccc2nc(NS(=O)(=O)c3ccccc3Cl)c(OC(c3cccnc3)C(F)(F)F)nc2c1 (stereo not drawn) [Compound 262, 2-chloro-N-{6-methyl-3-[2,2,2-trifluoro-1-(pyridin-3-yl)-ethoxy]quinoxalin-2-yl}benzenesulfonamide]
< 1000 | O=S(=O)(Nc1nc2ccccc2nc1OC(C1CCSCC1)C(F)(F)F)c1ccccc1Cl (stereo not drawn) [Compound 267, 2-chloro-N-{3-[2,2,2-trifluoro-1-(tetrahydro-2H-thiopyran-4-yl)ethoxy]quinoxalin-2-yl}benzenesulfonamide]
1000 to 10000 | O=CCCNS(=O)(=O)Nc1nc2ccccc2nc1OC(c1cccnc1)C(F)(F)F (stereo not drawn) [Compound 273, N-{3-[2,2,2-trifluoro-1-(pyridin-3-yl)ethoxy]quinoxalin-2-yl}-N′-(3-oxopropyl)-sulfuric diamide]
< 1000 | CCCS(=O)(=O)Nc1nc2ccccc2nc1OC(c1cncs1)C(F)(F)F (stereo not drawn) [Compound 276, N-{3-[2,2,2-trifluoro-1-(thiazol-5-yl)ethoxy]quinoxalin-2-yl}propane-1-sulfonamide]
< 1000 | CCCNS(=O)(=O)Nc1nc2ccccc2nc1OC(c1cncs1)C(F)(F)F (stereo not drawn) [Compound 281, N-{3-[2,2,2-trifluoro-1-(thiazol-5-yl)ethoxy]quinoxalin-2-yl}-N′-propyl-sulfuric diamide]
< 1000 | O=S(=O)(Nc1nc2ccccc2nc1OC(c1ccc(Cl)nc1)C(F)(F)F)NC1CC1 (stereo not drawn) [Compound 288, N-{3-[1-(6-chloropyridin-3-yl)-2,2,2-trifluoroethoxy]-quinoxalin-2-yl}-N′-cyclopropyl-sulfuric diamide]
< 1000 | CCCNS(=O)(=O)Nc1nc2ccccc2nc1OC(c1ccc(C#N)cc1)C(F)(F)F (stereo not drawn) [Compound 292, N-{3-[1-(4-cyanophenyl)-2,2,2-trifluoroethoxy]quinoxalin-2-yl}-N′-propyl-sulfuric diamide]
< 1000 | O=S(=O)(Nc1nc2ccccc2nc1OC(C1CCOCC1)C(F)(F)F)NC1CC1 (stereo not drawn) [Compound 299, N-{3-[2,2,2-trifluoro-1-(tetrahydro-2H-pyran-4-yl)ethoxy]-quinoxalin-2-yl}-N′-cyclopropyl-sulfuric diamide]
< 1000 | COCCS(=O)(=O)Nc1nc2ccccc2nc1OC(c1cccnc1)C(F)(F)F (stereo not drawn) [Compound 300, 2-methoxy-N-{3-[2,2,2-trifluoro-1-(pyridin-3-yl)ethoxy]-quinoxalin-2-yl}ethanesulfonamide]
< 1000 | O=S(=O)(CC1CC1)Nc1nc2ccccc2nc1OC(c1cccnc1)C(F)(F)F (stereo not drawn) [Compound 303, 1-cyclopropyl-N-{3-[2,2,2-trifluoro-1-(pyridin-3-yl)-ethoxy]quinoxalin-2-yl}methanesulfonamide]
< 1000 | C=CCS(=O)(=O)Nc1nc2ccccc2nc1OC(c1cccnc1)C(F)(F)F (stereo not drawn) [Compound 304, N-{3-[2,2,2-trifluoro-1-(pyridin-3-yl)ethoxy]quinoxalin-2-yl}-2-propene-1-sulfonamide]
